Among the data in patent US8652492B2, “Wet granulation using a water sequestering agent” (Rigel Pharmaceuticals, Inc., priority 2007, dated 2014) are bulk density values, retold here.

The series in a line: Bulk density (uncompressed, untapped powder). Type of series: physicochemical. To be noted: Compound 1 as synthesized, cotton like fluffy agglomerates. How it is done:
As used herein, the term “bulk density” refers to the uncompressed, untapped powder bulk density, as measured by pouring an excess of powder sample through a funnel into a smooth metal vessel (e.g., a 500 mL volume cylinder), scraping off the excess from the heap above the rim of the vessel, measuring the remaining mass of powder and dividing the mass by the volume of the vessel.
Three 500 g batches of Compound 1 powder blends (see Table 3) were prepared according to the following method. A KG-5 High Shear Granulator with an 8-inch impeller diameter was used to preblend all ingredients (except magnesium stearate) at low (155 rpm), medium (405 rpm), or high (600 rpm) impeller speeds with the chopper speed of 1200 rpm for 2 minutes. Water was added at a rate of 30 to 31.5 g/min to the powder mix. After the full amount of water was added, the mixture was blended for an additional 2 minutes. The wet granules were dried with the MiniGlatt Fluid Bed Dryer at 60° C. to targeted LODs and the granule texture, size, shape, stickiness, etc visually inspected. Drying at various temperatures and times are evaluated also. […] The final blends were checked for degradation by HPLC, and physical properties determined such as, Bulk Density, Tapped Density, Carr's Index, Hausner Ratio and Flow Index by Flodex. […]

With `COc1cc(Nc2ncc(F)c(Nc3ccc4c(n3)N(COP(=O)([O-])[O-])C(=O)C(C)(C)O4)n2)cc(OC)c1OC.[Na+].[Na+]` [Compound 1, (6-(5-fluoro-2-(3,4,5-trimethoxyphenylamino)pyrimidin-4-ylamino)-2,2-dimethyl-3-oxo-2H-pyrido[3,2-b][1,4]oxazin-4(3H)-yl)methyl phosphate disodium salt], the bulk density lay in the range of 0.15 to 0.30 g/mL.
